Test results taken from EP4653001A1, “TREATMENT, DIAGNOSIS AND/OR PROGNOSIS OF MITOCHONDRIAL DISEASES” (Universidad Autónoma de Madrid, priority 2024, dated 2025).

Columns and labels:
143B cell lines = test: Cell viability of CRISPR knock-out 143B cell lines treated with ETC inhibitors; format: cell-based
Method: All cell lines, 143b, HeLa, U2OS, and transmitochondrial cybrids carrying mutation in CI (ND2), CIII (CytB) or CIV (Cox2) subunits, were maintained in DMEM high glucose (HyClone), 10% FBS and 1% P/S at 37°C with 5% CO2. Mitochondrial mutant cells were cultured with supplementation of 50 µg/mL uridine. The selected cancer cell lines with different levels of malic enzyme (HCC15, KYSE410, CAKI1, J82, MDAMB453, Colo320, NCIH1703) were obtained from the DSMZ-German Collection of Microorganisms and Cell Cultures GmbH and cultured in the same DMEM 10% FBS medium. OCI-Lys3 and RCH-ACV cell lines (cells in suspension), were obtained from the same repository and cultured in RPMI 10% FBS medium. Transfections for gain- and loss-of-function studies were performed according to the manufacturer's instructions using the polyfect reagent (Qiagen, 301107). For cell number and proliferation experiments, cells were seeded in 12 or 6-well plates and allowed to proliferate for the specified durations. Subsequently, cells were trypsinized and quantified using a hemocytometer (NanoEnTek, DHC-N01). Cell viability was quantified using propidium iodide (PI; 50 µg/ml) staining.
Generation of knockout cell lines using CRISPR-Cas9 technology was performed with the lenti-CRISPR v2 vector (Addgene #52961). Guide sequences are: • sgGFPT1, 5-[…]-3 (SEQ ID NO: 1); • sgG6PD, 5-[…]-3 (SEQ ID NO: 2); • sgPHGDH, 5-[…]-3 (SEQ ID NO: 3); • sgMPC1, 5-[…]-3 (SEQ ID NO: 4) • sgPC, 5-CAGGCCCGGAACACACGGA-3 (SEQ ID NO: 5); • sgACLY, 5-[…]-3 (SEQ ID NO: 6); • sgME1, 5-[…]-3 (SEQ ID NO: 7).
To investigate glucose-dependent alternative metabolic pathways that become essential upon ETC inhibition, we generated through CRISPR/Cas9 technology, knock-out (KO) 143B cell lines for each of the following rate-limiting enzymes and transporters. We selected glucose 6 phosphate dehydrogenase (G6PD) for the PPP, Glutamine-Fructose-6-Phosphate Transaminase 1 (GFPT1) for the hexosamine pathway, Phosphoglycerate Dehydrogenase (PHGDH) for the serine biosynthesis pathway and Mitochondrial Pyruvate Carrier 1 (MPC1) to prevent pyruvate entry into the mitochondria. These KO and Control cells were treated with two specific ETC inhibitors (Piericidin A that targets Complex I and Antimycin A that targets Complex III) and cell viability was assessed after 3 days of treatment. […] We took advantage of the fruit fly Drosophila melanogaster model, as it is cost- and time-efficient and recapitulate a wide range of phenotypes seen in patients with metabolic and mitochondrial disorders. We obtained flies carrying mutations in Zw and Pgd genes (named: Pgd^39 Zw^lo2a), corresponding to human orthologs G6PD and 6PGD respectively. […]

cortical neurons = test: ATP measurement in live neurons (FRET ATP biosensor); format: cell-based, rats; conditions: soma or axons, 100 nM, 24 h
Method: ATP measurements was performed in primary co-cultures of cortical neurons and astrocytes from P1-2 wild-type rats of the Sprague-Dawley strain Crl:CD(SD), which are bred by Charles River Laboratories following the international genetic standard protocol (IGS). All experiments were carried out in strict accordance with the guidelines of the European Directive 2010/63/EU and the French Decree n° 2013- 118 concerning the protection of animals used for scientific purposes. Neurons were plate on poly- ornithine (Sigma-Aldrich, P3655) coated coverslips and maintained in culture media composed by MEM (Thermo Fisher Scientific, 51200-046), 20 mM Glucose (Sigma-Aldrich, G8270), 0.1 mg/mL transferrin (Sigma-Aldrich, 616420), 1% Glutamax (Thermo Fisher Scientific, 35050-038), 24 µg/mL insulin (Sigma-Aldrich, I6634), 5% FBS (Thermo Fisher Scientific, 10082-147), 2% N-21 (Bio-techne, AR008) and 4µM cytosine β-d-arabinofuranoside (Sigma-Aldrich, C6645). Cultures were incubated at 37°C in 95% air / 5% CO 2 humidified incubator.
Neurons were transfected at DIV 8 with ATeam1.03-nD/nA/pcDNA3 (gift from Takeharu Nagai (Addgene plasmid # 51958; http://n2t.net/addgene:51958; RRID:Addgene_51958)) and imaged at DIV 19. […] Fluorescence emission from ATeam was imaged using a FS 78 HE Dual camera; the exposure times were 250 ms for CFP and YFP images. […]

Compound: CC=C(C)C(O)C(C)C=C(C)C=CCC(C)=CCc1nc(OC)c(OC)c(O)c1C (stereo not drawn) [Piericidin, Piericidin A]
- cell viability (143B cell lines; G6PD KO 143B cells, after 3 days of treatment): sensitive
- survival or proliferation (143B cell lines; KO cells for GFPT1, PHGDH or MPC1, after 3 days of treatment): no differences
- ATP (genetically encoded biosensor) (cortical neurons): did not altered
